In this data set the test system is rodent lifetime carcinogenesis bioassay, tumor incidence TD50. The experiment in a line: chronic cancer bioassays in animals – CPDB, compiled studies (AID 1745844).

Drawing on PubChem BioAssay AID1745844 (Carcinogenic Potency Database (CPDB), 2022), this text covers TD50 and carcinogen call for 5 compounds.

Several values for one entry are separate records, joined by “and”; a condition that tells them apart may be missing. Equal entries are not always repeated. Activity calls are given as the source filed them. How the calls were made is not given here.

For orientation: TD50 means the 50% point of the dose-response relation for the toxic effect studied. Consider `O=CCC=O`, for which the TD50 by setting is: (mouse, strain B6C3F1, females, by gavage, site: any site (literature study), lesion: several types, types named in the paper, dosed 103 weeks, study length 104 weeks) 274 mg/kg/day (inactive); (mouse, strain B6C3F1, females, by gavage, site: liver, lesion: hepatocellular adenoma + hepatocellular carcinoma + neoplastic nodule, dosed 103 weeks, study length 104 weeks) 568 mg/kg/day; (mouse, strain B6C3F1, females, by gavage, site: lung, lesion: alveolar/bronchiolar adenoma + alveolar/bronchiolar carcinoma, dosed 103 weeks, study length 104 weeks) 4410 mg/kg/day; (mouse, strain B6C3F1, males, by gavage, site: any site (literature study), lesion: several types, types named in the paper, dosed 103 weeks, study length 104 weeks) 217 mg/kg/day (inactive); (mouse, strain B6C3F1, males, by gavage, site: liver, lesion: hepatocellular adenoma + hepatocellular carcinoma + neoplastic nodule, dosed 103 weeks, study length 104 weeks) 230 mg/kg/day; (mouse, strain B6C3F1, males, by gavage, site: lung, lesion: alveolar/bronchiolar adenoma + alveolar/bronchiolar carcinoma, dosed 103 weeks, study length 104 weeks) 1130 mg/kg/day. In addition, the TD50 was 24.8 mg/kg/day (mouse, strain Swiss, females, in drinking water, site: liver, lesion: hemangioma, dosed 52 weeks, study length 52 weeks); 4.62 mg/kg/day (mouse, strain Swiss, females, in drinking water, site: liver, lesion: hepatoma, dosed 52 weeks, study length 52 weeks); 44.3 mg/kg/day (mouse, strain Swiss, females, in drinking water, site: liver, lesion: hyperplastic nodule, dosed 52 weeks, study length 52 weeks); 14.1 mg/kg/day (mouse, strain Swiss, females, in drinking water, site: liver, lesion: several types, types named in the paper, dosed 52 weeks, study length 52 weeks); 164 mg/kg/day (rat, strain Fischer 344, females, by gavage, site: any site (literature study), lesion: several types, types named in the paper, dosed 103 weeks, study length 104 weeks); 1950 mg/kg/day (rat, strain Fischer 344, females, by gavage, site: liver, lesion: hepatocellular adenoma + hepatocellular carcinoma + neoplastic nodule, dosed 103 weeks, study length 104 weeks). Also, the TD50 reads like this: (rat, strain Fischer 344, females, by gavage, site: thyroid gland, lesion: follicular-cell adenoma + follicular-cell carcinoma, dosed 103 weeks, study length 104 weeks) 252 mg/kg/day; (rat, strain Fischer 344, males, by gavage, site: adrenal gland, lesion: cortical adenoma, dosed 103 weeks, study length 104 weeks) 566 mg/kg/day; (rat, strain Fischer 344, males, by gavage, site: adrenal medulla, lesion: pheochromocytoma, dosed 103 weeks, study length 104 weeks) 184 mg/kg/day; (rat, strain Fischer 344, males, by gavage, site: any site (literature study), lesion: several types, types named in the paper, dosed 103 weeks, study length 104 weeks) 41.8 mg/kg/day; (rat, strain Fischer 344, males, by gavage, site: liver, lesion: hepatocellular adenoma + hepatocellular carcinoma + neoplastic nodule, dosed 103 weeks, study length 104 weeks) 665 mg/kg/day; (rat, strain Fischer 344, males, by gavage, site: pancreatic islets + thyroid gland, lesion: islet-cell adenoma + follicular-cell adenoma + follicular-cell carcinoma, dosed 103 weeks, study length 104 weeks) 67.7 mg/kg/day. Besides, the TD50 by setting is: (rat, strain Fischer 344, males, by gavage, site: pancreatic islets, lesion: islet-cell adenoma + islet-cell carcinoma, dosed 103 weeks, study length 104 weeks) 90.3 mg/kg/day; (rat, strain Fischer 344, males, by gavage, site: pancreatic islets, lesion: islet-cell adenoma, dosed 103 weeks, study length 104 weeks) 80.5 mg/kg/day; (rat, strain Fischer 344, males, by gavage, site: subcutaneous tissue, lesion: fibrosarcoma + fibroma, dosed 103 weeks, study length 104 weeks) 195 mg/kg/day; (rat, strain Fischer 344, males, by gavage, site: testis, lesion: interstitial-cell tumor, dosed 103 weeks, study length 104 weeks) 39.8 mg/kg/day; (rat, strain Fischer 344, males, by gavage, site: thyroid gland, lesion: follicular-cell adenoma + follicular-cell carcinoma, dosed 103 weeks, study length 104 weeks) 113 mg/kg/day; (rat, strain Fischer 344, males, by gavage, site: thyroid gland, lesion: follicular-cell adenoma, dosed 103 weeks, study length 104 weeks) 206 mg/kg/day. The compound also registered a TD50 (rat, strain Fischer 344, males, by gavage, site: thyroid gland, lesion: follicular-cell carcinoma, dosed 103 weeks, study length 104 weeks) of 236 mg/kg/day. Further, under “mouse, strain Swiss, females, in drinking water, site: lung, lesion: adenoma, dosed 52 weeks, study length 52 weeks”, the carcinogen call is “negative (inactive)”.

With `O=C(O)CCC(=O)O`, the TD50 reads like this: (rat, strain F344/DuCrj, females, in drinking water, site: any site (literature study), lesion: one or several types, types not named, dosed 104 weeks, study length 113 weeks) 4820 mg/kg/day (inactive); (rat, strain F344/DuCrj, males, in drinking water, site: liver, lesion: hepatocellular carcinoma, dosed 104 weeks, study length 113 weeks) 54700 mg/kg/day (inactive). Further, the carcinogen call (rat, strain F344/DuCrj, females, in drinking water, site: liver, lesion: one or several types, types not named, dosed 104 weeks, study length 113 weeks) is “negative (inactive)”; the carcinogen call (rat, strain F344/DuCrj, males, in drinking water, site: any site (literature study), lesion: one or several types, types not named, dosed 104 weeks, study length 113 weeks) is “negative (inactive)”; the carcinogen call (rat, strain F344/DuCrj, males, in drinking water, site: liver, lesion: hepatocellular adenoma, dosed 104 weeks, study length 113 weeks) is “negative (inactive)”.

On to `CCCCCCCCCCCCN=C(N)N`, for which the carcinogen call (mouse, strain B6AKF1, females, oral dosing, site: any site (literature study), lesion: several types, types named in the paper, dosed 76 weeks, study length 76 weeks) was “negative (inactive)”; the carcinogen call (mouse, strain B6AKF1, females, oral dosing, site: liver, lesion: hepatoma, dosed 76 weeks, study length 76 weeks) is “negative (inactive)”; the carcinogen call (mouse, strain B6AKF1, females, oral dosing, site: lung, lesion: adenoma, dosed 76 weeks, study length 76 weeks) is “negative (inactive)”; the carcinogen call (mouse, strain B6AKF1, males, oral dosing, site: liver, lesion: hepatoma, dosed 76 weeks, study length 76 weeks) is “negative (inactive)”; the carcinogen call (mouse, strain B6C3F1, females, oral dosing, site: lung, lesion: several types, types named in the paper, dosed 76 weeks, study length 76 weeks) is “negative (inactive)”. Further, the TD50 is 149 mg/kg/day (inactive) (mouse, strain B6AKF1, males, oral dosing, site: any site (literature study), lesion: several types, types named in the paper, dosed 76 weeks, study length 76 weeks); 41.9 mg/kg/day (inactive) (mouse, strain B6AKF1, males, oral dosing, site: lung, lesion: several types, types named in the paper, dosed 76 weeks, study length 76 weeks); 54.7 mg/kg/day (inactive) (mouse, strain B6C3F1, females, oral dosing, site: any site (literature study), lesion: several types, types named in the paper, dosed 76 weeks, study length 76 weeks); 54.7 mg/kg/day (inactive) (mouse, strain B6C3F1, females, oral dosing, site: liver, lesion: hepatoma, dosed 76 weeks, study length 76 weeks); 10.8 mg/kg/day (inactive) (mouse, strain B6C3F1, males, oral dosing, site: any site (literature study), lesion: several types, types named in the paper, dosed 76 weeks, study length 76 weeks); 19.4 mg/kg/day (inactive) (mouse, strain B6C3F1, males, oral dosing, site: liver, lesion: hepatoma, dosed 76 weeks, study length 76 weeks). Besides, the TD50 (mouse, strain B6C3F1, males, oral dosing, site: lung, lesion: adenoma, dosed 76 weeks, study length 76 weeks) is 30.1 mg/kg/day (inactive).

`CC(C)CCC[C@@H](C)[C@H]1CC[C@H]2[C@@H]3CC=C4C[C@@H](OC(=O)Cc5ccc(N(CCCl)CCCl)cc5)CC[C@]4(C)[C@H]3CC[C@]12C`: the TD50 runs as follows: (mouse, strain B6C3F1, females, by gavage, site: all sites + lung + myocardium, lesion: leukemia + lymphoma + alveolar/bronchiolar adenoma + alveolar/bronchiolar carcinoma + sarcoma, NOS, dosed 70 weeks, study length 83 weeks) 0.211 mg/kg/day; (mouse, strain B6C3F1, females, by gavage, site: all sites, lesion: hemangiosarcoma, dosed 70 weeks, study length 83 weeks) 1.52 mg/kg/day; (mouse, strain B6C3F1, females, by gavage, site: all sites, lesion: leukemia + lymphoma, dosed 70 weeks, study length 82 weeks) 2.07 mg/kg/day; (mouse, strain B6C3F1, females, by gavage, site: all sites, lesion: leukemia + lymphoma, dosed 70 weeks, study length 83 weeks) 0.652 mg/kg/day; (mouse, strain B6C3F1, females, by gavage, site: any site (literature study), lesion: several types, types named in the paper, dosed 70 weeks, study length 83 weeks) 0.183 mg/kg/day; (mouse, strain B6C3F1, females, by gavage, site: lung, lesion: alveolar/bronchiolar adenoma + alveolar/bronchiolar carcinoma, dosed 70 weeks, study length 83 weeks) 0.416 mg/kg/day. Also, the TD50 was 0.951 mg/kg/day (mouse, strain B6C3F1, females, by gavage, site: myocardium, lesion: sarcoma, NOS, dosed 70 weeks, study length 83 weeks); 0.912 mg/kg/day (mouse, strain B6C3F1, females, by gavage, site: ovary, lesion: tubular adenoma, dosed 70 weeks, study length 83 weeks); 0.757 mg/kg/day (mouse, strain B6C3F1, males, by gavage, site: all sites + lung + myocardium, lesion: leukemia + lymphoma + alveolar/bronchiolar adenoma + alveolar/bronchiolar carcinoma + sarcoma, NOS, dosed 64 weeks, study length 81 weeks); 6.15 mg/kg/day (mouse, strain B6C3F1, males, by gavage, site: all sites, lesion: hemangiosarcoma, dosed 64 weeks, study length 81 weeks); 2.13 mg/kg/day and 1.89 mg/kg/day (mouse, strain B6C3F1, males, by gavage, site: all sites, lesion: leukemia + lymphoma, dosed 64 weeks, study length 81 weeks); 0.728 mg/kg/day (mouse, strain B6C3F1, males, by gavage, site: any site (literature study), lesion: several types, types named in the paper, dosed 64 weeks, study length 81 weeks). Further, the TD50 by setting is: (mouse, strain B6C3F1, males, by gavage, site: liver, lesion: hepatocellular adenoma + hepatocellular carcinoma + neoplastic nodule, dosed 64 weeks, study length 81 weeks) 32.9 mg/kg/day; (mouse, strain B6C3F1, males, by gavage, site: lung, lesion: alveolar/bronchiolar adenoma + alveolar/bronchiolar carcinoma, dosed 64 weeks, study length 81 weeks) 1.19 mg/kg/day; (mouse, strain B6C3F1, males, by gavage, site: lung, lesion: alveolar/bronchiolar carcinoma, dosed 64 weeks, study length 81 weeks) 2.05 mg/kg/day; (mouse, strain B6C3F1, males, by gavage, site: myocardium, lesion: sarcoma, NOS, dosed 64 weeks, study length 81 weeks) 3.87 mg/kg/day and 6.28 mg/kg/day; (rat, strain Sprague-Dawley, females, by gavage, site: any site (literature study), lesion: several types, types named in the paper, dosed 52 weeks, study length 85 weeks) 0.271 mg/kg/day; (rat, strain Sprague-Dawley, females, by gavage, site: mammary gland, lesion: adenocarcinoma, NOS, dosed 52 weeks, study length 85 weeks) 0.523 mg/kg/day. Further, the TD50 was 2.73 mg/kg/day (inactive) (rat, strain Sprague-Dawley, males, by gavage, site: all sites, lesion: leukemia + lymphoma, dosed 52 weeks, study length 84 weeks) and 0.481 mg/kg/day (inactive) (rat, strain Sprague-Dawley, males, by gavage, site: any site (literature study), lesion: several types, types named in the paper, dosed 52 weeks, study length 84 weeks).

For `CC(N)=S`, the TD50 is, setting by setting: (mouse, strain ICR, males, in feed, site: liver, lesion: hepatocellular carcinoma, dosed 40 weeks, study length 88 weeks) 15.3 mg/kg/day; (mouse, strain ICR, males, in feed, site: liver, lesion: hyperplastic nodule, dosed 40 weeks, study length 88 weeks) 12 mg/kg/day; (mouse, strain Swiss, females, in feed, site: liver, lesion: hepatoma, dosed 65 weeks, study length 65 weeks) 5.36 mg/kg/day; (rat, strain Donryu, males, in feed, site: liver, lesion: hepatocellular carcinoma, trabecular, dosed 40 weeks, study length 80 weeks) 21.8 mg/kg/day; (rat, strain Donryu, males, in feed, site: liver, lesion: papillary adenocarcinoma, dosed 40 weeks, study length 80 weeks) 27.6 mg/kg/day; (rat, strain Donryu, males, in feed, site: liver, lesion: several types, types named in the paper, dosed 40 weeks, study length 80 weeks) 11.5 mg/kg/day. Also, the carcinogen call (mouse, strain Swiss, males, in feed, site: liver, lesion: hepatoma, dosed 65 weeks, study length 65 weeks) was “positive”.
